Results: patent US10934529B2, “Three dimensional hydrogels for culturing organoids” (Ecole Polytechnique Fèdèrale de Lausanne, priority 2015, dated 2021)
Entries after “also recorded” stand apart in the source; their conditions may differ.

Key:
Type in all cases: cell-based, mouse
[1] = system: intestinal stem cells (ISCs); assay: ISC colony formation efficiency / ISC expansion in hydrogels; settings: for Expansion of Lgr5+ cells: supplement to standard intestinal organoid growth medium, PEG-RGD culture; for ISC colony formation, ECM component in combination with RGD / ISC colony formation / self-renewal, ECM component alone: component in soft (300 Pa) or stiff (1300 Pa) PEG matrices; for ISC colony formation / self-renewal, ECM component alone: without RGD
Procedure: Freshly isolated crypts or single cells from dissociated colonies were added to the Matrigel or hydrogels precursor solution and cast in 20-μL droplets at the bottom of wells in 24-well plate. […] For single cell culture, thiazovivin (2.5 μM; Stemgent) and Jagged-1 peptide ([…]; Anaspec) was included in the medium during the first two days. Broad spectrum protease inhibitor, GM6001, was added to the medium while embedding the cells in PEG hydrogels. Every two days the growth factors were replenished and the full medium was changed.
(§1) To quantify the colony formation efficiency of single embedded ISCs, phase contrast z-stacks spanning the entire thickness of the cell-laden Matrigel or PEG gels were collected (Zeiss Axio Observer Z1) at 5 different locations within the gels. The Cell Counter plugin in ImageJ (NIH) was used to quantify the fraction of cells which had formed colonies at day 4 after seeding. To assess the viability of intestinal tissue fragments embedded in PEG, phase contrast images of the entire gel were collected. The fraction of viable tissues was estimated based upon the epithelial morphology: tissues that featured an epithelial monolayer surrounding a central lumen after 24 h of embedding were deemed viable.

Lgr5-EGFP = Lgr5-EGFP reporter expression in colonies and organoids; settings: cultured in the presence of collagen-I
Text: Lgr5-EGFP was expressed in the expected pattern, localized to the crypt-like buds of the organoids (FIG. 3B). […] Stem cell differentiation into functional cell types was confirmed by immunofluorescence analysis. Staining for lysozyme verified the presence of Paneth cells in the expected locations, interspersed with Lgr5+ stem cells in the characteristic checkerboard pattern (FIG. 3F). The organoids therefore retained the normal characteristics of epithelial cell organoids during culture in the hydrogels.
Intestinal crypts were extracted from 5-10 week old heterozygous Lgr5-EGFP-IRES-CreERT2 mice (Jackson Laboratory), following animal experimentation protocols prescribed by EPFL and FELASA.

ISC colonies = assay: ISC colony differentiation and intestinal organoid formation; settings: for ISC colony differentiation and organoid formation in soft PEG-RGD gels supplied with an ECM component: colonies grown in 1 kPa PEG-RGD, transferred into soft F-PEG-RGD, differentiation conditions; for Organoid formation from ISCs grown in soft laminin-containing gels: after switching to organoid formation conditions
Procedure: To induce stem cell differentiation and organoid formation, the medium was removed, the gels were incubated in PBS (1 hr, […]) to remove residual CHIR99021 and valproic acid, and fresh medium containing EGF, Noggin and Respondin was added. In general, growth factors were replenished every two days, with full medium change taking place every four days.
Intestinal organoids embedded in Matrigel or PEG were fixed with 4% paraformaldehyde (PFA) in PBS (30 min, RT). The fixation process typically led to complete degradation of the Matrigel. […] Following resuspension in water, the organoids were spread on glass slides and allowed to attach by drying. Attached organoids were rehydrated by adding PBS. Following fixation, organoids embedded in PEG or spread on glass were permeabilized with 0.2% Triton X-100 in PBS (1 h, RT) and blocked (10% goat serum in PBS containing 0.01% Triton X-100) for at least 2 h. Samples were subsequently incubated with blocking buffer-dissolved phalloidin-Alexa 546 (Invitrogen) and primary antibodies against lysozyme (1:50; Thermo Scientific) or mucin-2 (1:25; Santa Cruz) (overnight, 4° C.). After washing with PBS for 3 h (during which PBS was replaced every hour), samples were incubated with secondary antibody (Alexa 647) organoids were imaged in epifluorescence (Zeiss Axio Observer Z1) or confocal (Zeiss LSM 710) mode.

[2] = system: freshly-isolated intestinal crypts; assay: Survival and morphogenesis of freshly isolated intestinal crypts embedded in 3D matrices; settings: component presented alongside RGD in PEG-RGD hydrogel
Text: Matrigel is currently used to grow epithelial organoids. To address the question of whether Matrigel serves as merely a passive 3D scaffold, providing physical support, or actively influences organoid formation by presenting essential cues, freshly-isolated intestinal crypts were embedded into enzymatically crosslinked PEG hydrogels, which are soft and hydrated and thus mimic the basic physical properties of Matrigel without providing any biochemical signals.
Intestinal crypt isolation: Mouse intestine crypts were isolated following procedures known in the art. Briefly, the proximal part of the intestine was harvested, opened longitudinally and washed with ice-cold PBS. The luminal side of the intestine was scraped using a glass slide to remove luminal content and villous structures. After washing with ice-cold PBS again, the intestine was cut into 2-4 mm pieces with scissors. The pieces were transferred to a 50 ml Falcon tube and further washed with cold PBS (5-10 times) with gentle vortexing. […]
To quantify the colony formation efficiency of single embedded ISCs, phase contrast z-stacks spanning the entire thickness of the cell-laden Matrigel or PEG gels were collected (Zeiss Axio Observer Z1) at 5 different locations within the gels. The Cell Counter plugin in ImageJ (NIH) was used to quantify the fraction of cells which had formed colonies at day 4 after seeding. […]

intestinal organoids = assay: Viability, growth and morphogenesis of intestinal organoids / tissue fragments in hydrogels
Text: To identify a short sequence that supports intestinal cell survival, a library of soft (G′=200 Pa) hydrogels was created, in which specific binding sequences from the laminin al subunit (Table 1) were tethered to the PEG backbone.
as §1

## Cc1c[nH]c(-c2cnc(NCCNc3ccc(C#N)cn3)nc2-c2ccc(Cl)cc2Cl)n1 [CHIR99021, reference compound]
[1]
  Expansion of Lgr5+ cells: increased

## CNC(=O)[C@H](Cc1c[nH]c2ccccc12)NC(=O)[C@@H](CC(=O)NO)CC(C)C [GM6001, reference compound]
[1]; printed: within non-degradable gels, high stiffness
  Colony formation efficiency on blocking MMP activity, high matrix stiffness: reduced it to levels observed in non-degradable gels
[1]; printed: within non-degradable gels, low stiffness
  Colony formation efficiency on blocking MMP activity, low matrix stiffness: did not alter colony formation efficiency

## Cc1ccc2c(c1)C(=O)C1(O)CCN(c3ccccc3)C1=N2 (stereo not drawn) [blebbistatin, reference compound]
[1]; PEG-RGD matrices of varying stiffness
  Effect of blocking myosin-mediated contractility on colony formation efficiency: abolished the stiffness-induced increase in colony formation efficiency

## CCCC(CCC)C(=O)O [valproic acid, reference compound]
[1]
  Expansion of Lgr5+ cells: increased

## Arginine-Glycine-Aspartic Acid [RGD, reference compound]
[1]; RGD-containing gels of varying stiffness
  Shear modulus at which ISC expansion / colony formation efficiency is optimal: 1.3 kPa
[1]; TG-PEG-RGD, varying RGD
  RGD concentration at which ISC colony formation efficiency reached a plateau: approximately 500 μM

## Collagen-I: ECM component incorporated in PEG hydrogels
Lgr5-EGFP
  Lgr5-EGFP in viable cells and colonies: largely devoid of Lgr5-EGFP
[1]
  ISC colony formation, ECM component in combination with RGD: did not have a striking effect
[1]; soft hydrogels with collagen-I and RGD
  ISC morphology: adopted a spindle-like morphology

## Fibronectin
ISC colonies
  ISC colony differentiation and organoid formation in soft PEG-RGD gels supplied with an ECM component: failed to support ISC colony differentiation and organoid formation
[1]
  ISC colony formation, ECM component in combination with RGD: no added effect
  ISC colony formation / self-renewal, ECM component alone: appreciable colony formation only in stiff matrices

## Hyaluronic acid [reference compound]
ISC colonies
  ISC colony differentiation and organoid formation in soft PEG-RGD gels supplied with an ECM component: failed to support ISC colony differentiation and organoid formation
[2]
  Crypt viability: synergistic increase in crypt viability
[1]
  ISC colony formation, ECM component in combination with RGD: did not appear to influence

## Laminin-111: extracellular matrix glycoprotein, heterotrimer of α, β and γ chain
ISC colonies; listed as laminin
  Organoid formation from ISCs grown in soft laminin-containing gels: give rise to organoids
ISC colonies; listed as laminin-111
  Organoid formation from ISCs grown in soft laminin-containing gels: a small portion of the ISC colonies gave rise to intestinal organoids
ISC colonies
  ISC colony differentiation and organoid formation in soft PEG-RGD gels supplied with an ECM component: pronounced morphogenesis and organoid formation; also recorded: required for organoid formation
[1]
  ISC colony formation, ECM component in combination with RGD: increased colony formation efficiency
  ISC colony formation / self-renewal, ECM component alone: effectively supported colony formation in soft matrices; also recorded: supports ISC colony formation within soft matrices
[1]; laminin-containing gels
  Stiffness at which ISC colony formation efficiency peaks: 700 Pa
[1]; soft hydrogels containing both RGD and laminin-111
  ISC colony formation: 30-50%
[1]; soft, 300 Pa hydrogel
  Efficiency in inducing ISC colony formation compared with RGD: significantly more efficient

## Perlecan: ECM component incorporated in PEG hydrogels
ISC colonies
  ISC colony differentiation and organoid formation in soft PEG-RGD gels supplied with an ECM component: failed to support ISC colony differentiation and organoid formation
[1]
  ISC colony formation, ECM component in combination with RGD: starkly increased colony formation efficiency
  ISC colony formation / self-renewal, ECM component alone: did not alter ISC self-renewal

## RKRLQVQLSIRT [AG73, synthetic peptide derived from the globular domain of the laminin al chain]
ISC colonies
  ISC colony differentiation and organoid formation in soft PEG-RGD gels supplied with an ECM component: showed some early signs of differentiation and morphogenesis; also recorded: failed to support ISC colony differentiation and organoid formation
Intestinal organoids; soft (G'=200 Pa) PEG hydrogels with tethered laminin a1 subunit binding sequences
  Organoid viability: significantly enhanced organoid viability
Intestinal organoids; varying amount of AG73 tethered to PEG gel backbone
  Effect of amount of tethered AG73 on organoid viability and growth: dose-dependent effect; also recorded: concentration-dependent
[2]
  Crypt viability: synergistic increase in crypt viability

## laminin-511: ECM component incorporated in PEG hydrogels
[1]
  ISC colony formation, ECM component in combination with RGD: no effect
  ISC colony formation / self-renewal, ECM component alone: no effect
